From ChEMBL document CHEMBL1138924, “Crystal structure, spectroscopic, and biological study of the copper(II) complex with third-generation quinolone antibiotic sparfloxacin” (2006)
≈ marks a conversion by molar mass, not a printed value.

How the values were obtained:
Format in all cases: functional
[1] = tested on: Staphylococcus aureus; assay: Antimicrobial activity against Staphylococcus aureus
[2] = tested on: Pseudomonas aeruginosa; assay: Antimicrobial activity against Pseudomonas aeruginosa
[3] = tested on: Escherichia coli; assay: Antimicrobial activity against Escherichia coli

SMILES: C[C@@H]1CN(c2c(F)c(N)c3c(=O)c(C(=O)O)cn(C4CC4)c3c2F)C[C@H](C)N1 [SPARFLOXACIN]
- MIC [1]: 0.5 µg/mL (≈ 1.27 µM)
- MIC [2]: 0.25 µg/mL (≈ 0.637 µM)
- MIC [3]: 8 µg/mL (≈ 20.4 µM)
